≈ marks a conversion by molar mass, not a printed value. Where a SMILES comes first, the peptide text is derived from it. Bridges are numbered along the chain shown (N, C = ends). [ ]: non-standard residue; d: D form. The star is where a group is joined. X5 = CCCCCCCC(=O)CC(=O)*; Dab = NCC[C@H](N)C(=O)O; X9 = CCCCCCC(=O)CC(=O)*; X6 = CCCC(=O)CC(=O)*; X8 = CN(C)CCCCC(=O)*; X4 = COCCCCCC(=O)*
Legend:
Format in all cases: cell-based
[1] = test system: Acinetobacter baumannii ATCC 19606; conditions: ATCC 19606
Experimental: (§1) The minimum inhibitory concentration (MIC) was determined by means of dish double dilution method using a Multipoint inoculator according to the CLSI recommended method. The compounds of the present invention (for example, the compounds prepared in the Embodiments) and the reference substances were diluted twice each time with the broth into various desired concentrations, and appropriate amounts were added to the dishes. Agar medium is melted, and then quantitatively injected into the dish containing the drug solution, and mixed. The final concentrations of the compounds of the invention (e.g., the compounds prepared in the Embodiments) and the controls were 0.03, 0.06, 0.125, 0.25 . . . 128 μg/mL, respectively. The test bacteria were cultured overnight with nutrient broth, brain heart infusion or HTM broth. During the tests, the bacterial solutions were diluted appropriately, and the test bacteria (inoculation amount 10^4 CFU/dot) were inoculated on the surface of the drug-containing agar by a multi-point inoculator. After drying, the bacterial was incubated for 18 to 24 hours at 35° C., the results were observed, the minimum concentrations of the compounds of the present invention (for example, the compounds prepared in the Embodiments) and the controls contained in the dishes with no growth of colonies were MICs.
(§2) The strains used in the antibacterial activity experiments were from the American Type Culture Collection (ATCC) and clinical isolates.
(§3) The strains used for the experiments on antibacterial activity included Escherichia coli ATCC 25922, Klebsiella pneumoniae ATCC BAA-2146 (NDM-1), Pseudomonas aeruginosa ATCC 27853, Acinetobacter baumannii ATCC 19606 and Staphylococcus epidermidis ATCC 12228.
(§4) Tested samples: polymyxin derivatives prepared according to the technical scheme of the present invention;
(§5) Controls: polymyxin B sulfate and colistin (polymyxin E sulfate).

[2] = test system: Escherichia coli ATCC 25922; conditions: ATCC 25922
Experimental: as §1, §2, §3, §4, §5

[3] = test system: Pseudomonas aeruginosa ATCC 27853; conditions: ATCC 27853
Experimental: as §1, §2, §3, §4, §5

[4] = test system: Staphylococcus epidermidis ATCC 12228; conditions: ATCC 12228
Experimental: as §1, §2, §3, §4, §5

[5] = test system: Klebsiella pneumoniae ATCC BAA-2146 (NDM-1); experiment: Antibacterial activity, MIC by dish double dilution method; conditions: ATCC BAA-2146
Experimental: as §1, §2, §3, §4, §5

Row | MIC A. baumannii ATCC 19606 [1] [µg/mL] | MIC E. coli ATCC 25922 [2] [µg/mL] | MIC P. aeruginosa ATCC 27853 [3] [µg/mL] | MIC S. epidermidis ATCC 12228 [4] [µg/mL] | MIC K. pneumoniae ATCC BAA-2146 (NDM-1) [5] [µg/mL] | Structure (SMILES)
1 | 2 (≈ 1.68 µM) | 1 (≈ 0.839 µM) | 1 (≈ 0.839 µM) | >128 | 4 (≈ 3.36 µM) | COCCCCCC(=O)N[C@@H](CCN)C(=O)N[C@H](C(=O)N[C@@H](CCN)C(=O)N[C@H]1CCNC(=O)[C@H]([C@@H](C)O)NC(=O)[C@H](CCN)NC(=O)[C@H](CCN)NC(=O)[C@H](CC(C)C)NC(=O)[C@@H](Cc2ccccc2)NC(=O)[C@H](CCN)NC1=O)[C@@H](C)O [Compound 1, 6-methoxycaproyl-Dab-Thr-Dab-ring(4-10)[Dab-Dab-D-Phe-Lue-Dab-Dab-Thr]] (X4-[Dab]T[Dab][Dab][Dab][dF]L[Dab][Dab]T; lactam 4-C)
2 | 8 (≈ 6.72 µM) | 16 (≈ 13.4 µM) | 1 (≈ 0.84 µM) | >128 | 128 (≈ 108 µM) | CC(C)C[C@@H]1NC(=O)[C@@H](Cc2ccccc2)NC(=O)[C@H](CCN)NC(=O)[C@@H](NC(=O)[C@H](CCN)NC(=O)[C@@H](NC(=O)[C@H](CCN)NC(=O)CCCCN(C)C)[C@@H](C)O)CCNC(=O)[C@H]([C@@H](C)O)NC(=O)[C@H](CCN)NC(=O)[C@H](CCN)NC1=O [Compound 2, N,N-dimethylaminovaleryl-Dab-Thr-Dab-ring(4-10)[Dab-Dab-D-Phe-Lue-Dab-Dab-Thr]] (X8-[Dab]T[Dab][Dab][Dab][dF]L[Dab][Dab]T; lactam 4-C)
3 | 8 (≈ 6.81 µM) | 0.5 (≈ 0.425 µM) | 2 (≈ 1.7 µM) | 128 (≈ 109 µM) | 2 (≈ 1.7 µM) | CCCC(=O)CC(=O)N[C@@H](CCN)C(=O)N[C@H](C(=O)N[C@@H](CCN)C(=O)N[C@H]1CCNC(=O)[C@H]([C@@H](C)O)NC(=O)[C@H](CCN)NC(=O)[C@H](CCN)NC(=O)[C@H](CC(C)C)NC(=O)[C@@H](Cc2ccccc2)NC(=O)[C@H](CCN)NC1=O)[C@@H](C)O [Compound 3, 3-oxocaproyl-Dab-Thr-Dab-ring(4-10)[Dab-Dab-D-Phe-Lue-Dab-Dab-Thr]] (X6-[Dab]T[Dab][Dab][Dab][dF]L[Dab][Dab]T; lactam 4-C)
4 | 2 (≈ 1.64 µM) | 1 (≈ 0.821 µM) | 2 (≈ 1.64 µM) | 16 (≈ 13.1 µM) | 1 (≈ 0.821 µM) | CCCCCCC(=O)CC(=O)N[C@@H](CCN)C(=O)N[C@H](C(=O)N[C@@H](CCN)C(=O)N[C@H]1CCNC(=O)[C@H]([C@@H](C)O)NC(=O)[C@H](CCN)NC(=O)[C@H](CCN)NC(=O)[C@H](CC(C)C)NC(=O)[C@@H](Cc2ccccc2)NC(=O)[C@H](CCN)NC1=O)[C@@H](C)O [Compound 6, 3-oxononanoyl-Dab-Thr-Dab-ring(4-10)[Dab-Dab-D-Phe-Lue-Dab-Dab-Thr]] (X9-[Dab]T[Dab][Dab][Dab][dF]L[Dab][Dab]T; lactam 4-C)
5 | 2 (≈ 1.62 µM) | 2 (≈ 1.62 µM) | 4 (≈ 3.25 µM) | 32 (≈ 26 µM) | 2 (≈ 1.62 µM) | CCCCCCCC(=O)CC(=O)N[C@@H](CCN)C(=O)N[C@H](C(=O)N[C@@H](CCN)C(=O)N[C@H]1CCNC(=O)[C@H]([C@@H](C)O)NC(=O)[C@H](CCN)NC(=O)[C@H](CCN)NC(=O)[C@H](CC(C)C)NC(=O)[C@@H](Cc2ccccc2)NC(=O)[C@H](CCN)NC1=O)[C@@H](C)O [Compound 7, 3-oxodecanoyl-Dab-Thr-Dab-ring(4-10)[Dab-Dab-D-Phe-Lue-Dab-Dab-Thr]] (X5-[Dab]T[Dab][Dab][Dab][dF]L[Dab][Dab]T; lactam 4-C)

From patent US20190315806A1, “POLYMYXIN DERIVATIVE, PREPARATION METHOD AND APPLICATION THEREOF” (priority 2016, published 2019)
